Experimental data reported in the CATMoS acute toxicity set (Mansouri et al. 2021).

Experiment: GHS categories as the set defines them, by LD50: 1 up to 5, 2 up to 50, 3 up to 300, 4 up to 2000, 5 above 2000 mg/kg
Settings: rat; in vivo; po
Source text: […]The data set underlying the modeling effort for this project was initially compiled by NICEATM and U.S. EPA’s CCTE. Briefly, LD50 data were collected from rat acute oral systemic toxicity tests, including limit tests, ranges/confidence intervals, and discrete LD50 values. The full data set included 21,200 LD50 entries for 15,688 substances. […] Data were reviewed to ensure that LD50 values with obvious errors in the extracted data such as unit conversion errors (e.g., comma and decimal separator misplacements) were either fixed or removed. After this review, 16,209 LD50 values remained. Many of the chemicals represented had multiple LD50 entries, requiring that a single representative value per Chemical Abstracts Service Registry Number (CASRN) identifier be defined to facilitate modeling efforts. Based on ATWG feedback and to define the representative LD50 as a protective value while accounting for the distribution across multiple LD50s, the median of the lowest quartile was computed using only discrete LD50 values (omitting limit test data and range and confidence interval data). A detailed summary of the data compilation is available online on the NICEATM webpage dedicated to the collaborative modeling project (NTP 2020).
[…][…] For categorical designations, limit test and range/confidence interval LD50 data were integrated wherever possible. As such, the number of chemicals with end point values/calls varies across the modeling end points (Table 3) based on whether chemicals had representative LD50 values and/or other data. If a chemical had both, the representative value was used to determine categorical calls rather than limit test data. Some data were useable only for certain end points and categories depending on the thresholds. For example, ranges that spanned multiple hazard categories were considered only for the binary (very toxic/nontoxic) end points and omitted from rendering a determination for hazard category assignment.
[…]The final data set comprising 11,992 chemicals was split into training and evaluation sets […], respectively. This process was performed semirandomly by ordering chemicals based on the five end points (categorical and continuous LD50 values) and partitioning every fourth record into the evaluation set accordingly. This approach was taken to ensure an equivalent distribution of the LD50 values and the different hazard categories between the training and the evaluation sets without supervised sampling of the chemicals based on structures (Figure 1A). The sources of the chemical structures were also kept equivalent between the two sets, with chemical structures obtained from DSSTox, being the highest quality, representing over 75% of each set (Figure 1B).

In order of rising GHS category:
1. CC12CCC(O)C=C1C(O)CC1(O)C2CCC2(C)C(c3ccc(=O)oc3)CCC21O (stereo not given)  2
2. O=[N+]([O-])c1ccc2c(c1)COP(=S)(N1CCCC1)O2 (stereo not given)  3
3. OC1(c2cccs2)c2ccccc2C2=NCCN21 (stereo not given)  4
4. CCCc1nc2ccnn2c(NCCN2CCCC2)c1Cc1ccc(-c2ccccc2-c2nn[nH]n2)cc1  4
5. CC(C)CCCC(C)CCCC(C)CCCCC(C)CCCC(C)CCCC(C)C (stereo not given)  4
6. C=C[Si](C)(N(CC)C(C)=O)N(CC)C(C)=O  4
7. CCOC(=O)NC1CCCN(c2nc(N)c3cc(OC)c(OC)cc3n2)C1 (stereo not given)  4
8. CCCCOC(=O)c1ccc(-n2nc(OCCCN(C)C)c3ccccc32)cc1  4
9. COc1ccc2c(c1)CCN(c1ccccc1)C2c1ccccc1N (stereo not given)  4
10. CCCCCCCCCCCC(=O)N(CCCC)CCCC  5
11. COc1ccccc1N=NC(C(C)=O)C(=O)Nc1ccc2[nH]c(=O)[nH]c2c1 (stereo not given)  5
12. CCOc1ccc(NC(=O)OC(C)C)cc1OCC  5
13. CCC(=O)O[C@]1(C(=O)COC(C)=O)CC[C@H]2[C@@H]3C[C@H](C)C4=CC(=O)C=C[C@]4(C)[C@H]3[C@@H](O)C[C@@]21C  5
14. Cn1c(N)c(NC=O)c(=O)n(C)c1=O  5
15. O=C(CC(=O)c1ccccc1)c1ccccc1  5
16. CCCCC(CC)COC(=O)OCC(CC)CCCC (stereo not given)  5
17. CC(C)(N=C=O)c1ccc(C(C)(C)N=C=O)cc1  5
18. OC(c1ccc(F)cc1F)c1cccnc1Cl (stereo not given)  5
19. FC(F)(F)c1cccc(C(c2ccccc2)(c2ccccc2)n2cncn2)c1  5
20. CS(=O)(=O)c1ccc(C(=O)C2C(=O)CCCC2=O)c([N+](=O)[O-])c1  5
21. CC(C)COC(=O)OCN1C(=O)CN(CCN2CC(=O)N(COC(=O)OCC(C)C)C(=O)C2)CC1=O  5
22. C=CC(C)(CCC=C(C)C)OC(=O)Cc1ccccc1 (stereo not given)  5
23. CCC(C)CCCC(C)CCCC(C)C (stereo not given)  5
24. CCCCCC=CCC=CCC=CCC=CCCCC(=O)OCC  5
25. C/C=C(\C)C(=O)O[C@H]1C[C@@H](OC(C)=O)[C@@]2(C(=O)OC)CO[C@H]3[C@@H](O)[C@@](C)([C@]45O[C@@]4(C)[C@H]4C[C@@H]5O[C@@H]5OC=C[C@@]54O)[C@H]4[C@]1(CO[C@]4(O)C(=O)OC)[C@@H]32  5
26. O=C1C2C3CC(C(Br)C3Br)C2C(=O)N1CCN1C(=O)C2C3CC(C(Br)C3Br)C2C1=O (stereo not given)  5
27. O=C1CCc2cc(OCCCCc3nnnn3C3CCCCC3)ccc2N1  5
28. C=CC(C)CCC=C(C)C (stereo not given)  5
29. C1C2CC3CC1CC(C2)C3  5
30. C=C1c2cccc(O)c2C(=O)C2=C(O)[C@]3(O)C(=O)C(C(N)=O)=C(O)[C@@H](N(C)C)[C@@H]3[C@@H](O)[C@H]12  5
31. N#CCC(=O)OCC(COC(=O)CC#N)(COC(=O)CC#N)COC(=O)CC#N  5
32. Cc1cc(C)c(S(=O)(=O)O)cc1N=Nc1cc(S(=O)(=O)O)c2ccccc2c1O  5
33. c1cc2c(c(OCCN3CCCCC3)c1)OCCO2  5
34. CO/N=C(/C(=O)N[C@@H]1C(=O)N2C(C(=O)OCOC(=O)C(C)(C)C)=C(C)CS[C@H]12)c1csc(N)n1  5
35. CCCCCCCCCCCCCC(=O)N[C@@H](CCC(=O)O)C(=O)O  5
36. CC(C)(c1ccc(OP(=O)(Oc2ccccc2)Oc2ccccc2)cc1)c1ccc(OP(=O)(Oc2ccccc2)Oc2ccccc2)cc1  5
37. CSC(C)=NOC(=O)N(C)SN(C(C)(C)C)P1(=S)OCC(C)(C)CO1  5
38. O=C1Cc2ccccc2O1  5
39. CSC(C)(C)SC  5
40. COC(=O)CCc1cc(-n2nc3ccccc3n2)c(O)c(C(C)(C)C)c1  5
41. CO/N=C(/C1=NOCCO1)c1ccccc1Oc1ncnc(Oc2ccccc2Cl)c1F  5
42. CC1(C)CC2(CC(C)(C)N1)OC1(CCCCCCCCCCC1)NC2=O  5
43. NCC1(CC(=O)O)CCCCC1  5
44. N#CCN(CC#N)CCN(CC#N)CC#N  5
45. CC(C)(C)C1=CC(=Cc2ccccc2)C=C(C(C)(C)C)C1=O  5
46. CCS(=O)(=O)c1nc2ccccn2c1S(=O)(=O)NC(=O)Nc1nc(OC)cc(OC)n1  5
47. FC(F)(F)N1C(F)(F)C(F)(F)OC(F)(F)C1(F)F  5
48. CCC(C)CCC(C)(O)CC (stereo not given)  5
49. NC(=O)Oc1ccc(Cl)cc1C(=O)Oc1ccccc1  5
50. C[C@]12CC[C@H]3[C@@H](CC[C@@]45O[C@@H]4C(O)=C(C#N)C[C@]35C)[C@@H]1CC[C@@H]2O  5
